In patent publication US20250032526A1, “COMPOSITION, METHOD FOR PREPARING SAME, AND USE THEREOF” (priority 2022, published 2025):

Key:
[1] = Stability investigation of related substance (capsules); format: physicochemical; settings: 0 day
Description: The capsules provided by the present invention were taken and separately put under the conditions shown in Table 18 to investigate the stability.

[2] = Compatibility of raw material and auxiliary material (content measurement); format: physicochemical
Protocol: The mixture was allowed to stand at 60° C. high temperature condition (60° C.), high humidity condition (25° C., 92.5% RH), acceleration condition (40° C.±2° C., 75% RH±5%), and light condition (4500 1×±500 1×) for 10 days and 30 days, and then taken out to detect the content and the change of the related substance.

Impurity (%) RRT 0.42 [1]: 0.47%
Impurity (%) RRT 0.49 (0.48) [1]: 0.19%
Impurity (%) RRT 1.16 [1]: 0.75%
Impurity (%) RRT 1.42 (1.38) [1]: 0.53%
Impurity (%) RRT 1.44 (1.40) [1]: 0.16%
Impurity (%) RRT 1.70 (1.65) [1]: 0.04%
Impurity (%) Total [1]: 2.10%
Content measurement result, 25° C./92.5% RH, open, 10 day ([2]; 25° C./92.5% RH, 10 day): 100.3%
Content measurement result, 60° C., open, 10 day ([2]; 60° C., 10 day): 100.3%
Content measurement result, 60° C., open, 30 day ([2]; 60° C., 30 day): 100.5%
SMILES: N#C[C@@]1(c2ccc3c(N)ncnn23)O[C@H](COC(=O)C2CCCCC2)[C@@H](O)[C@H]1O [ATV014]
